Where two headings read alike, the source gives them in different places.
Assays:
[1] = log P by HPLC on reversed-phase column (C 18), EEC Directive 79/831 Annex V.A8; type: physicochemical; settings: 55° C.; for LOGP_HCOOH: log P (HCOOH); for chromatographic logP: reversed-phase HPLC column (C 18)
Description: Temperature: 55° C. […] Called log P (HCOOH) in the table. […] Called log P (neutral) in the table.

[2] = test system: Ctenocephalides felis; experiment: Ctenocephalides felis oral test; type: in vivo; settings: application rate 100 ppm in citrated cattle blood, after 2 days, adult cat fleas
Description: Ctenocephalides felis—Oral Test Solvent: dimethyl sulphoxide To produce a suitable active ingredient formulation, 10 mg of active ingredient are mixed with 0.5 ml of dimethyl sulphoxide. Dilution with citrated cattle blood gives the desired concentration. About 20 unfed adult cat fleas (Ctenocephalides felis) are placed into a chamber which is closed at the top and bottom with gauze. A metal cylinder whose bottom end is closed with parafilm is placed onto the chamber. The cylinder contains the blood/active ingredient formulation, which can be imbibed by the fleas through the parafilm membrane. After 2 days, the kill in % is determined. 100% means that all of the fleas have been killed; 0% means that none of the fleas have been killed.

[3] = test system: Phaedon cochleariae; experiment: Phaedon cochleariae spray test; type: in vivo; settings: after 7 days, Chinese cabbage leaf discs
In short: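 Larval kill read at day 7 as percent, where 100% means every larva dead and 0% none; larvae were placed on dried Brassica pekinensis leaf discs previously sprayed with the formulation (acetone/dimethylformamide solvent, alkylaryl polyglycol ether emulsifier, water).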

[4] = test system: Lucilia cuprina; experiment: Lucilia cuprina test; type: in vivo; settings: application rate 100 ppm, after 2 days, L1 larvae
Description: Lucilia cuprina Test Solvent: dimethyl sulphoxide To produce a suitable active ingredient formulation, 10 mg of active ingredient are mixed with 0.5 ml of dimethyl sulphoxide, and the concentrate is diluted with water to the desired concentration. About 20 L1 larvae of the Australian sheep blowfly (Lucilia cuprina) are transferred into a test vessel containing minced horsemeat and the active ingredient formulation of the desired concentration. After 2 days, the kill in % is determined. 100% means that all the larvae have been killed; 0% means that no larvae have been killed.

[5] = test system: Spodoptera frugiperda; experiment: Spodoptera frugiperda spray test; type: in vivo; settings: after 7 days, maize leaf discs
In short: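 Efficacy in % was scored at 7 days against armyworm caterpillars placed on dried, compound-sprayed Zea mays leaf discs. Compound was dissolved in acetone/dimethylformamide and diluted in water with 1000 ppm alkylaryl polyglycol ether. 100% means all caterpillars were killed.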

[6] = acidic range pH 2.7, 0.1% aqueous formic acid and acetonitrile, reversed-phase column (C 18)
[7] = log P (neutral), HPLC reversed-phase column (C 18)
[8] = acidic range at pH 2.7, 0.1% aqueous formic acid and acetonitrile, HPLC on reversed-phase column (C 18)
[9] = log P, neutral range, HPLC on reversed-phase column (C 18)

SMILES	LOGP_HCOOH [1, 6]	LOGP_HCOOH [1, 8]	LOGP_NEUTRAL [1, 9]	LOGP_NEUTRAL [1, 7]	efficacy (kill in %) [2] [%]	efficacy (beetle larvae killed) ([3]; application rate 100 g/ha) [%]	efficacy (beetle larvae killed) ([3]; application rate 500 g/ha) [%]	efficacy (kill in %) [4] [%]	efficacy (caterpillars killed) ([5]; application rate 100 g/ha) [%]	efficacy (caterpillars killed) ([5]; application rate 500 g/ha) [%]	chromatographic logP ([1]; pH 2.7, LC-MS acidic range, pH 2.7, 0.1% formic acid/acetonitrile, read-out: log P (acidic) / log P (HCOOH))	chromatographic logP ([1]; pH 7.8, LC-MS neutral range, pH 7.8, ammonium hydrogencarbonate/acetonitrile, read-out: log P (neutral))	pest or weed control at 100 ppm ([2]; Ctenocephalides felis, po, 48 h, read-out: efficacy (kill in %)) [%]	pest or weed control at 500 g/ha ([3]; Phaedon cochleariae, foliar, 168 h, application rate 500 g/ha, read-out: efficacy (beetle larvae killed)) [%]	pest or weed control at 100 g/ha ([5]; Spodoptera frugiperda, foliar, 168 h, application rate 100 g/ha, read-out: efficacy (caterpillars killed)) [%]	pest or weed control at 500 g/ha ([5]; Spodoptera frugiperda, foliar, 168 h, application rate 500 g/ha, read-out: efficacy (caterpillars killed)) [%]
O=C(NCc1ccc(-c2ncon2)cc1)c1cc(-c2ccc(OC(F)(F)F)cc2)cc(NC(=O)C2CC2)n1 [Example I-094]	3.96	–	3.84	–	100	100	100	100	–	100	–	–	–	–	–	–
N#Cc1ccc(CNC(=O)c2cc(-c3ccc(OC(F)(F)F)cc3)cc(NC(=O)C3CC3)n2)cc1F [Example I-080]	4.01	–	3.87	–	100	100	100	100	83	100	–	–	–	–	–	–
CCC(=O)Nc1cc(-c2ccc(C(F)(F)F)cc2)cc(C(=O)NCc2ccc(C#N)cc2)n1 [Example I-048]	4.59	–	3.47	–	–	–	100	100	83	100	–	–	–	–	–	–
O=C(NCc1ccc(Cl)cc1)c1cc(-c2ccc(C(F)(F)F)cc2)cc(NC(=O)C2CC2)n1 [Example I-008]	4.48	–	4.34	–	100	–	–	95	100	100	–	–	–	–	–	–
N#Cc1cccc(CNC(=O)c2cc(-c3ccc(C(F)(F)F)cc3)cc(NC(=O)C3CC3)n2)c1 [Example I-004]	3.83	–	–	–	100	–	100	–	–	100	–	–	–	–	–	–
O=C(NCc1ccc2c(c1)OC(F)(F)O2)c1cc(-c2ccc(OC(F)(F)F)cc2)cc(NC(=O)C2CC2)n1 [Example I-095]	4.79	–	4.61	–	95	–	83	–	–	100	–	–	–	–	–	–
N#Cc1ccc(CNC(=O)c2cc(-c3ccc(OC(F)(F)F)cc3)cc(NC(=O)C3CC3)n2)cn1 [Example I-051]	3.49	–	3.37	–	100	100	100	–	100	100	–	–	–	–	–	–
O=C(NCc1ccc(C(F)(F)F)cc1F)c1cc(-c2ccc(OC(F)(F)F)cc2)cc(NC(=O)C2CC2)n1 [Example I-065]	4.80	–	4.74	–	95	–	83	–	100	100	–	–	–	–	–	–
COC(=O)N(C(=O)C1CC1)c1cc(-c2ccc(OC(F)(F)F)cc2)cc(C(=O)NCc2ccc(C#N)cc2)n1 [Example I-233, Methyl {6-[(4-cyanobenzyl)carbamoyl]-4-[4-(trifluoromethoxy)phenyl]pyridin-2-yl}(cyclopropylcarbonyl)carbamate]	3.90	–	–	3.91	–	–	–	–	–	–	3.9	3.91	100	100	100	100
CC(=O)Nc1cc(-c2ccc(C(F)(F)F)cc2)cc(C(=O)NCc2ccc(C#N)cc2)n1 [Example I-017]	3.15	–	3.13	–	98	–	100	–	–	100	–	–	–	–	–	–
O=C(Nc1ccc(Cl)cc1)c1cc(-c2ccc(C(F)(F)F)cc2)cc(NC(=O)C2CC2)n1 [Example I-021]	4.96	–	5.08	–	–	–	100	85	–	100	–	–	–	–	–	–
N#CC1(NC(=O)c2cc(-c3ccc(C(F)(F)F)cc3)cc(NC(=O)C3CC3)n2)CC1 [Example I-041]	3.28	–	3.18	–	95	100	100	–	100	100	–	–	–	–	–	–

Further lines, with some results ahead:

LOGP_HCOOH [1, 6]	LOGP_HCOOH [1, 8]	LOGP_NEUTRAL [1, 9]	SMILES	LOGP_NEUTRAL [1, 7]	efficacy (kill in %) [2] [%]	efficacy (beetle larvae killed) ([3]; application rate 100 g/ha) [%]	efficacy (beetle larvae killed) ([3]; application rate 500 g/ha) [%]	efficacy (kill in %) [4] [%]	efficacy (caterpillars killed) ([5]; application rate 100 g/ha) [%]	efficacy (caterpillars killed) ([5]; application rate 500 g/ha) [%]	chromatographic logP ([1]; pH 2.7, LC-MS acidic range, pH 2.7, 0.1% formic acid/acetonitrile, read-out: log P (acidic) / log P (HCOOH))	chromatographic logP ([1]; pH 7.8, LC-MS neutral range, pH 7.8, ammonium hydrogencarbonate/acetonitrile, read-out: log P (neutral))	pest or weed control at 100 ppm ([2]; Ctenocephalides felis, po, 48 h, read-out: efficacy (kill in %)) [%]	pest or weed control at 500 g/ha ([3]; Phaedon cochleariae, foliar, 168 h, application rate 500 g/ha, read-out: efficacy (beetle larvae killed)) [%]	pest or weed control at 100 g/ha ([5]; Spodoptera frugiperda, foliar, 168 h, application rate 100 g/ha, read-out: efficacy (caterpillars killed)) [%]	pest or weed control at 500 g/ha ([5]; Spodoptera frugiperda, foliar, 168 h, application rate 500 g/ha, read-out: efficacy (caterpillars killed)) [%]
4.56	–	–	N#Cc1c(F)cc(CNC(=O)c2cc(-c3ccc(C(F)(F)C(F)(F)F)c(F)c3)cc(NC(=O)C3CC3)n2)cc1F [Example I-250]	4.50	100	100	100	95	100	100	–	–	–	–	–	–
–	4.40	4.34	N#Cc1ccc(CNC(=O)c2cc(-c3ccc(N(C(F)(F)F)C(F)(F)F)cc3)cc(NC(=O)C3CC3)n2)cc1 [Example I-225]	–	100	100	100	100	100	100	–	–	–	–	–	–
–	4.02	3.89	CC(C)C(=O)N(C)c1cc(-c2ccc(OC(F)(F)F)cc2)cc(C(=O)NCc2ccc(C#N)cc2)n1 [Example I-217]	–	80	–	83	100	100	100	–	–	–	–	–	–
–	3.98	4.31	N#Cc1ccc(CNC(=O)c2cc(-c3ccc(S(F)(F)(F)(F)F)cc3)cc(NC(=O)C3CC3)n2)cc1 [Example I-173]	–	100	100	100	100	100	100	–	–	–	–	–	–
–	4.00	–	O=C(NC1CCC1)c1cc(-c2ccc(OC(F)(F)F)cc2)cc(NC(=O)C2CC2)n1 [Example I-133]	–	100	–	–	100	100	100	–	–	–	–	–	–
–	4.07	3.86	N#Cc1ccc(CNC(=O)c2cc(-c3ccc(SC4CC4)cc3)cc(NC(=O)C3CC3)n2)cc1 [Example I-142]	–	100	100	100	90	–	–	–	–	–	–	–	–
–	3.25	3.14	NC(=S)C1(NC(=O)c2cc(-c3ccc(OC(F)(F)F)cc3)cc(NC(=O)C3CC3)n2)CC1 [Example I-189]	–	100	100	100	–	100	100	–	–	–	–	–	–
–	4.33	4.19	CC(C)C(=O)Nc1cc(-c2ccc(OC(F)(F)F)cc2)cc(C(=O)NCc2cc(F)c(C#N)cc2F)n1 [Example I-110]	–	100	100	100	–	100	100	–	–	–	–	–	–
4.29	–	4.16	O=C(NCc1ccc([N+](=O)[O-])cc1F)c1cc(-c2ccc(OC(F)(F)F)cc2)cc(NC(=O)C2CC2)n1 [Example I-102]	–	100	100	100	–	83	100	–	–	–	–	–	–

Reference: patent publication US20190053492A1, “SUBSTITUTED PYRIDINE COMPOUNDS AS PESTICIDES” (Bayer CropScience Aktiengesellschaft, priority 2016, published 2019)
